Assay results as given in US9587002B2, “Sequence of nucleotides and peptides GSE 24.2 of dyskerin, which can induce telomerase activity, method for obtaining same, therapeutic compositions and applications thereof” (CONSEJO SUPERIOR DE INVESTIGACIONES CIENTIFICAS, priority 2005, dated 2017).

B1: Trub II: fragment of GSE 24.2 containing the Trub II domain (SEQ ID NO13, peptide SEQ ID NO14) (nucleic acid, listed as Homo sapiens)
DNA: CACAGTGGTACTCTGGATCCCAAGGTGACTGGTTGTTTAATCGTGTGCATAGAACGAGCCACTCGCTTGGTGAAG
modifications: expressed or natural sequence

Columns and labels:
hTERT promoter [1] = assay: hTERT-luc reporter (luciferase) assay in 293T cells; type: cell-based, human; details: 293T cells transiently transfected with construct vs empty vector; hTERT-luc, 24 hours
Method: FIG. 8.—Activity of the hTERT promoter in the 293T cell lines: pLNCX and 24.2 and in 293T cells transiently transfected with the pLNCX-24.2 construct and the pLNCX empty plasmid. A) Both the pLNCX and the 24.2 cells were transiently transfected with 0.25 μg of the hTERT-luc reporter vector. The cells were seeded in 60-mm plates. After 24 hours of transfection, the cells were lysed and the luciferase activity of 10 μg of total protein was quantified. As a transfection control, the cells were co-transfected with a reporter vector, CMV-Renilla. B) The 293T cells were transfected with the pLNCX vector and the 24.2 plasmid (5 μg), and both were co-transfected with 0.25 μg of the hTERT-luc reporter vector. After seeding the cells as in A, they were transfected with pLNCX and 24.2, and co-transfected with the hTERT-luc reporter vector; subsequently, they were treated as in A. As a transfection control, the CMV-Renilla reporter vector was used. The data correspond to the ratio of relative units of luciferase with respect to non-transfected cells. Each point represents the mean±the standard deviation obtained from 3 independent experiments. C) The 293T cells were transfected with the different GSE 24.4, DSK, TRUB I, TRUB II constructs and the pLNCX empty plasmid (5 μg), and co-transfected with 0.25 μg of the hTERT-luc reporter vector. The cells were seeded in 60-mm plates; after 24 hours of transfection, the cells were lysed and the luciferase activity of 10 μg of total protein was quantified. As a transfection control, the cells were co-transfected with a CMV-Renilla reporter vector. The data correspond to the ratio of relative units of luciferase with respect to non-transfected cells. Each point represents the mean±the standard deviation obtained from 3 independent experiments.
FIG. 9.—Activity of the hTERT promoter following treatment with cisplatin. A) Both the pLNCX cell line and the 24.2 cell line were transiently transfected with 0.25 μg of the hTERTIuc reporter vector. After 24 hours of transfection, they were treated with 3 μg/ml of cisplatin for 8 hours. The cells were seeded in 60-mm plates; after 24 hours of transfection and following treatment with cDDP, the cells were lysed and the luciferase activity of 10 μg of total protein was quantified. As a transfection control, the cells were co-transfected with a CMV-Renilla reporter vector. B) 293T cells which, after being transiently transfected with pLNCX and 24.2, were co-transfected with 0.25 μg of the hTERT-luc reporter vector and treated as in A. After seeding the cells as in A, they were transfected with pLNCX and 24.2, and co-transfected with the hTERT-luc reporter vector; subsequently, they were treated as in A. As a transfection control, the CMV-Renilla reporter vector was used. The data correspond to the ratio of relative units of luciferase with respect to non-transfected cells. Each point represents the mean±the standard deviation obtained from 3 independent experiments.
A) The 293T cells were co-transfected with different constructs (10 μg/DNA per million cells) and the hTERT-luc reporter (1 μg per million cells). The specified cell lines were co-transfected with the hTERT-luc reporter and different quantities of the Mad/myc expression vector. (B) The specified cell lines were co-transfected with the HIV-luc reporter and with different quantities of the Mad/myc expression vector. After 24 h of transfection, the cells were stimulated with 50 ng/ml of TNF-α for 6 hours and the luciferase activity was analysed as described above. CMV-Renilla (0.1 μg/ml per million cells) was used as a control for the transfection efficiency. The data represent the mean of two experiments performed in quadruplicate.
The pseudouridine synthase TRUB domain of dyskerin comprises two structural subdomains: the Trub I and II motifs (Zucchini et al., 2003). These two domains are critical to maintain the global protein structure of dyskerin. […]

hTERT promoter [2] = assay: hTERT-luc reporter assay in VA13 cells; type: cell-based; details: co-transfection with hTERT-luc, 24 h
Method: FIG. 10.—Telomerase activity and expression levels of hTERT and hTR in the cells of patients with dyskeratosis congenita and in VA13 cells transiently transfected with the 24.2 plasmid or the pLNCX empty vector. A) Telomerase activity measured by means of the TRAP assay in the cells of patients with dyskeratosis congenita (DC-1, DC-2 and DC-3) and in the carrier parent (DC-C) following electroporation of 45 μg of the pLNCX empty plasmid (−) or the pLNCX 24.2 vector (+) by 15 million cells. B) RT-PCR of the RNA from cells of one of the patients with dyskeratosis congenita, DC3 transfected with the empty vector and DC3 transfected with the 24.2 plasmid, using oligos specific for hTERT and hTR. As a starting RNA control, oligos for the amplification of GAPDH were used. C) Telomerase activity in VA13 cells. […] 24 hours later, the telomerase activity was analysed as described above, using dilutions of the protein extracts from each transfection. […] RNA levels were detected as described above. […] After 24 h of transfection, the luciferase activity was analyzed as described above. […]
Luciferase assay. The transcriptional regulation of hTERT was measured by means of the Luciferase reporter gene, preceded by a 3,402-pb sequence of the hTERT promoter. […] The cell lysates were centrifuged and the expression of luciferase was quantified with 10 μg of protein from the supernatant, using a Berthold luminometer. […]

293T cells = assay: Cell viability of 293T cell lines treated with cisplatin (crystal violet); type: cell-based, human; details: 293T cells stably expressing the construct vs empty vector pLNCX; cisplatin 0-100 μg/ml, 72 hours
Method: FIG. 2.—Cell viability and activation of the JNK and p38 death pathways in 293T cell lines: pLNCX and 24.2, treated with cisplatin. A) Cell viability. After seeding the 293T cells: expressing the empty vector (pLNCX) and GSE 24.2 (24.2) in 24-well plates, they were incubated with concentrations between 0-100 μg/ml of cisplatin. The cell viability was measured by means of the crystal violet technique after 72 hours of exposure to the drug. The data represent the mean of two experiments performed in quadruplicate. B) Activation kinetics. Subsequently, the activation of JNK and p38 was studied using antibodies that specifically recognise the active forms. As a load control, the levels of JNK-1 were detected.
FIG. 4.—Viability of the 293T cell lines: pLNCX, 24.2, DSK5′ and DSK treated with cisplatin. The cell lines described above (pLNCX and 24.2), the DSK 5′ cell line, which expresses a fragment of dyskerin described in the preceding figure, and a fourth one that overexpresses the complete cDNA of dyskerin (DSK) have been used. The viability was analyzed as shown in FIG. 1 A. The data represent the mean of two experiments performed in quadruplicate. […]
Growth curves. […] The number of cells was determined by estimating the absorbance at 595 nm. […]

Molecule	activity of the hTERT promoter, transient expression (hTERT promoter [1])	activity of the hTERT promoter in VA13 cells (hTERT promoter [2])	cell viability in response to cisplatin (293T cells)
Trub I: fragment of GSE 24.2 containing the Trub I domain (SEQ ID NO11, peptide SEQ ID NO12) (DNA GGTTTCATTAATCTTGACAAGCCCTCTAACCCCTCTTCCCATGAGGTGGTAGCC; expressed or natural sequence; listed as Homo sapiens)	act by activating the expression of the hTERT promoter	activated the hTERT promoter	–
DSK 5′: construct containing the first 500 nucleotides of human dyskerin, cloned in pLNCX [reference compound]	–	–	do not have any activity whatsoever
B1	act by activating the expression of the hTERT promoter	–	–
